{"source": "patent US20090131351A1", "about": "“Methods, compositions, and kits for modulating tumor cell proliferation” (Antisoma Research Limited, priority 2007, published 2009)", "key": {"A498": {"system": "A498", "assay": "Tumor cell line sensitivity to AS1411", "assay_type": "cell-based"}, "Normal fibroblast": {"system": "Normal fibroblast", "assay": "Effect of AS1411 on normal cells", "assay_type": "cell-based", "conditions": "similar concentrations of AS1411", "excerpt": "(§1) Multiple haematological cancer cell lines were exposed to varying concentrations of AS1411 over a period of 6 days according to the Sulphorhodamine B assay described in Example 1. […] (See FIG. 2). […] Normal fibroblast and B cells were however unaffected by similar concentrations of AS1411."}, "B cells": {"system": "B cells", "assay": "Effect of AS1411 on normal cells", "assay_type": "cell-based", "conditions": "similar concentrations of AS1411", "excerpt": "as §1"}, "DU-145": {"system": "DU-145", "assay": "Tumor cell line sensitivity to AS1411", "assay_type": "cell-based"}, "KG-1 (AML cell line)": {"system": "KG-1 (AML cell line)", "assay": "Sulphorhodamine B assay, KG-1 cells", "assay_type": "cell-based", "conditions": "6 days, SRB", "description": "(§2) MV4-11 cells (AML cell line available and obtained from ATCC under catalogue number CRL-9591) were seeded in wells of a 96-well plate at a number optimised for each cell line. 1 μM AS1411 was added with varying concentrations of cytarabine (0.002 to 1.5 μM) and cells were incubated for 6 days. A control was run with the 1 μM AS1411 without cytarabine. A second control series was run with the varying amounts of cytarabine but with no AS1411 present.\n(§3) Cells were then washed, fixed to the 96-well plate and exposed to the dye Sulphorhodamine B (SRB; available from Sigma-Aldrich, Dorset, UK; catalogue number S-1402). The remaining cell mass after exposure to AS1411 was measured with a spectrophotometer and IC50 determined.\nas §1"}, "CALU06": {"system": "CALU06", "assay": "Tumor cell line sensitivity to AS1411", "assay_type": "cell-based"}, "LS174T": {"system": "LS174T", "assay": "Tumor cell line sensitivity to AS1411", "assay_type": "cell-based"}, "MCF-7": {"system": "MCF-7", "assay": "Tumor cell line sensitivity to AS1411", "assay_type": "cell-based"}, "PANC-1": {"system": "PANC-1", "assay": "Tumor cell line sensitivity to AS1411", "assay_type": "cell-based"}, "HGC.27": {"system": "HGC.27", "assay": "Tumor cell line sensitivity to AS1411", "assay_type": "cell-based"}, "ZR75-1": {"system": "ZR75-1", "assay": "Tumor cell line sensitivity to AS1411", "assay_type": "cell-based"}, "A549": {"system": "A549", "assay": "Tumor cell line sensitivity to AS1411", "assay_type": "cell-based"}, "AML cell line": {"system": "AML cell line", "assay": "Apoptosis, caspase, DNA fragmentation, PS externalization and cell cycle effects of AS1411 in AML cell line", "assay_type": "cell-based", "conditions": "AS1411 administered to AML cell line"}, "[1]": {"system": "MV4-11 cells (AML cell line)", "assay": "Sulphorhodamine B assay, MV4-11 cells", "assay_type": "cell-based, human", "conditions": "6 days", "description": "1 μM AS1411 was added with varying concentrations of cytarabine (0.002 to 1.5 μM) and cells were incubated for 6 days. A control was run with the 1 μM AS1411 without cytarabine. A second control series was run with the varying amounts of cytarabine but with no AS1411 present.\nThe remaining cell mass after exposure to AS1411 was measured with a spectrophotometer and IC50 determined."}, "KATO III": {"system": "KATO III", "assay": "Tumor cell line sensitivity to AS1411", "assay_type": "cell-based"}, "HT-29": {"system": "HT-29", "assay": "Tumor cell line sensitivity to AS1411", "assay_type": "cell-based"}, "[2]": {"system": "human AML cell line MV4-11 xenografts", "assay": "Combination therapy in a xenograft mouse model", "assay_type": "in vivo, nu/nu MF1 mouse", "conditions": "for Fractional Tumor Volume (FTV) relative to untreated controls: single agent; for Average volume of tumors at 7 days post-treatment (tumor volume change): group average, Cytarabine 80 mg/kg/daily i.p.; for Average volume of tumors at 7 days post-treatment (tumor volume change) / Volume of individual tumors at 7 days post-treatment (indicating tumor volume change): day 7, AS1411 40 mg/kg/day s.c. minipump; for Volume of individual tumors at 7 days post-treatment (indicating tumor volume change): individual mice, Cytarabine 80 mg/kg/daily i.p. 5 days", "description": "The nu/nu MF1 mouse strain has been used previously at these laboratories and background data are available. A total of 50 female MF1 mice were obtained from the Biological Research Facility, SGHMS, London) in a weight range of 5 to 6 weeks of age (nominally 23-28 g). Mice were individually identified using a subcutaneously implanted microchip.\nThe xenografts were prepared from the human AML cell line MV4-11 (DSMZ Number: CCL-102). Cells were grown in accordance with Standard Operating Procedures (SOP) and established methodology; suitable methods are known in the art. Cells were suspended at 2.0×10^8 cells/ml in ice-cold PBS, mixed 1:1 with ice-cold Matrigel™ Matrix (BD Biosciences, Lot 61459) and kept on ice until the time of injection into animals. Mice were injected subcutaneously with 100 μl cell suspension on the right flank.\nAnimals were checked regularly until visible tumors appeared. Tumors were measured in accordance with the relevant SOP twice per week and tumor volume calculated using the formula: Volume=(π÷6000)×(Tumor Length×Tumor Width×Tumor Height).\nMeasurements commenced approximately one week before the day of treatment when the xenograft had reached a volume of >0.03 cm^3.\nOnce the tumors were established, mice were allocated into groups using a randomisation procedure based on stratified xenograft volume. Measurements were recorded electronically using electronic calipers and the Trojan system for data capture.\nDay 0 is defined as the day on which the average tumor volume is between 0.07 to 0.08 cm^3. Relative tumor volume on Day 0 is defined as 1.\nAS1411 (manufactured by Avecia, UK, batch number: AQV-07H-005; expiry date 02/2009) was given by continuous infusion using ALZET mini-osmotic pumps (Durect Corp. CA, USA). The mini-pumps were implanted subcutaneously on days 0 on the left flank of mice (opposite to the tumor location). Mice received a dose of 40 mg/kg/day with a dose-volume of 1 μl/h lasting for 7 days. The minipumps were then removed and a second drug-loaded minipump implantation in the same location to last a further 7 days.\nThe intraperitoneal route of administration of Cytarabine was selected. Mice were administered with Cytarabine (DBL, Australia; batch number: TO11966AA; expiry date 02/2009) at 80 mg/kg/daily for 5 consecutive days with a dose-volume of 8 μl/g body weight starting on day 0. After 2 days gap a second cycle of a similar 5-day dosing was initiated on day 7. Control mice were untreated.\nMice (n=10) were allocated to groups as follows: • Untreated controls • Cytarabine alone • AS1411 alone • Cytarabine+AS1411\nThe Fractional Product method was used to analyse the combination therapy (Yokohama et al., 2000, Cancer Res., 60:2190-6). According to this method, the effects of two drugs, when combined, can be calculated by multiplying the fractional tumor volume (treated volume/control volume on a given day) by each single drug. If the effect of the drugs acting simultaneously is equal to or larger than that calculated, it would be assumed that additivity, or synergism, respectively, has occurred.\n[Mean tumor volume test]/[Mean tumor volume control]\n[Mean FTV of […]]×[Mean FTV of AS1411]\n[Expected FTV]/[Observed FTV]\nA combination therapy index R>1.0 indicates a synergistic effect.\nA combination therapy index R<1.0 indicates a less than additive effect."}, "SKOV-3": {"system": "SKOV-3", "assay": "Tumor cell line sensitivity to AS1411", "assay_type": "cell-based"}, "U87-MG": {"system": "U87-MG", "assay": "Tumor cell line sensitivity to AS1411", "assay_type": "cell-based"}, "HL-60 (AML cell line)": {"system": "HL-60 (AML cell line)", "assay": "Sulphorhodamine B assay, HL-60 cells", "assay_type": "cell-based", "conditions": "6 days, SRB", "description": "as §2, §3, §1"}, "SK-MEL-28": {"system": "SK-MEL-28", "assay": "Tumor cell line sensitivity to AS1411", "assay_type": "cell-based"}, "PC3": {"system": "PC3", "assay": "Tumor cell line sensitivity to AS1411", "assay_type": "cell-based"}}, "note": "“And” between values parts separate entries of the source, which are not always exact repeats. Identical values can stand only once.", "data": [{"compound": "5′-GGTGGTGGTGGTTGTGGTGG TGGTGG-3′ [AS1411]", "values": [{"measurement": "sensitivity to AS1411", "setting": "A498", "value": "sensitivity"}, {"measurement": "effect on normal cells", "setting": "Normal fibroblast", "value": "unaffected"}, {"measurement": "effect on normal cells", "setting": "B cells", "value": "unaffected"}, {"measurement": "sensitivity to AS1411", "setting": "DU-145", "value": "sensitivity"}, {"measurement": "IC50", "setting": "KG-1 (AML cell line)", "value": "low"}, {"measurement": "sensitivity to AS1411", "setting": "CALU06", "value": "sensitivity"}, {"measurement": "sensitivity to AS1411", "setting": "LS174T", "value": "sensitivity"}, {"measurement": "sensitivity to AS1411", "setting": "MCF-7", "value": "sensitivity"}, {"measurement": "sensitivity to AS1411", "setting": "PANC-1", "value": "sensitivity"}, {"measurement": "sensitivity to AS1411", "setting": "HGC.27", "value": "sensitivity"}, {"measurement": "sensitivity to AS1411", "setting": "ZR75-1", "value": "sensitivity"}, {"measurement": "sensitivity to AS1411", "setting": "A549", "value": "sensitivity"}, {"measurement": "DNA fragmentation", "setting": "AML cell line", "value": "dose-dependent increase"}, {"measurement": "PS externalization", "setting": "AML cell line", "value": "increase"}, {"measurement": "apoptosis", "setting": "AML cell line", "value": "induction"}, {"measurement": "caspase activity", "setting": "AML cell line", "value": "increase"}, {"measurement": "cell cycle effect in tumor cells", "setting": "AML cell line", "value": "arrest at the S-phase"}, {"measurement": "IC50", "setting": "[1]; AS1411 alone, SRB", "value": "low"}, {"measurement": "sensitivity to AS1411", "setting": "KATO III", "value": "sensitivity"}, {"measurement": "sensitivity to AS1411", "setting": "HT-29", "value": "sensitivity"}, {"measurement": "Relative tumor volume (relative to tumor volume at Day 0 of treatment)", "setting": "[2]; Day 0 (defined as 1)", "value": 1.000}, {"measurement": "Relative tumor volume (relative to tumor volume at Day 0 of treatment)", "setting": "[2]; Day 4", "value": 2.500}, {"measurement": "Fractional Tumor Volume (FTV) relative to untreated controls", "setting": "[2]; Day 4", "value": 0.848}, {"measurement": "Relative tumor volume (relative to tumor volume at Day 0 of treatment)", "setting": "[2]; Day 7", "value": 3.900}, {"measurement": "Fractional Tumor Volume (FTV) relative to untreated controls", "setting": "[2]; Day 7", "value": 0.915}, {"measurement": "Average volume of tumors at 7 days post-treatment (tumor volume change)", "setting": "[2]", "value": "Average = 3.9"}, {"measurement": "Volume of individual tumors at 7 days post-treatment (indicating tumor volume change)", "setting": "[2]", "value": "3.5 and 5.9 and 3.0 and 3.3 and 4.8 and 5.5 and 2.5 (2×) and 3.8 and 4.5 and 1.1"}, {"measurement": "sensitivity to AS1411", "setting": "SKOV-3", "value": "sensitivity"}, {"measurement": "sensitivity to AS1411", "setting": "U87-MG", "value": "sensitivity"}, {"measurement": "IC50", "setting": "HL-60 (AML cell line)", "value": "low"}, {"measurement": "sensitivity to AS1411", "setting": "SK-MEL-28", "value": "sensitivity"}, {"measurement": "sensitivity to AS1411", "setting": "PC3", "value": "sensitivity"}]}, {"compound": "Nc1ccn([C@@H]2O[C@H](CO)[C@@H](O)[C@@H]2O)c(=O)n1", "note": "[Cytarabine, 1β-arabinofuranosylcytosine, reference compound]", "values": [{"measurement": "reduction of IC50 of cytarabine by combination with AS1411", "setting": "[1]; cytarabine 0.002 to 1.5 μM with 1 μM AS1411 vs cytarabine alone", "value": "more than three-fold"}, {"measurement": "Relative tumor volume (relative to tumor volume at Day 0 of treatment)", "setting": "[2]; Day 0 (defined as 1)", "value": 1.000}, {"measurement": "Relative tumor volume (relative to tumor volume at Day 0 of treatment)", "setting": "[2]; Day 4", "value": 1.900}, {"measurement": "Fractional Tumor Volume (FTV) relative to untreated controls", "setting": "[2]; Day 4", "value": 0.713}, {"measurement": "Relative tumor volume (relative to tumor volume at Day 0 of treatment)", "setting": "[2]; Day 7", "value": 3.100}, {"measurement": "Fractional Tumor Volume (FTV) relative to untreated controls", "setting": "[2]; Day 7", "value": 0.844}, {"measurement": "Average volume of tumors at 7 days post-treatment (tumor volume change)", "setting": "[2]", "value": "Average = 3.1"}, {"measurement": "Volume of individual tumors at 7 days post-treatment (indicating tumor volume change)", "setting": "[2]", "value": "7.2 and 3.5 and 2.8 and 1.5 and 2.4 (2×) and 3.4 and 2.5 and 2.2 and 1.1"}]}]}
